pKd: −log10 of the molar value.
Target: T1, PSMA (Homo sapiens, UniProt Q04609)
T1 construct: Detection of endogenous PSMA expression in LNCaP and PC3 cells relative to β-actin expression by Western; host or cells: LNCaP human prostate carcinoma cells (monolayer, spheroids or Potter-Elvehjem homogenates)
Test: Saturation binding using LNCaP cell homogenates
Method: The binding affinity of the nonlabeled CHDT-PSMA-1/2/3, PSMA-1007, PSMA-617, and KuE was assessed in competition binding assays using LNCaP cell homogenates (∼1 × 10^6 cells/mL using Potter-Elvehjem) and the radioligand [^177Lu]Lu-PSMA-617 (n = 5 for CHDT-PSMA-1; n = 4 for CHDT-PSMA-2/3; n = 2 for PSMA-1007; n = 8 for PSMA-617; n = 6 for KuE). […] The assays were performed in a final volume of 200 μL. The incubation was stopped by washing the homogenate with cold PBS four times using a filter (Whatman GF/C, 90 min presoaked in 0.3% polyethylenimine) in a cell harvester (Brandel, USA). The radioactivity bound to the filter was measured in a gamma counter. Filter binding was determined for adjacent samples without cell homogenate. […] The Kd value of [^177Lu]Lu-PSMA-617 was determined in saturation binding assays using LNCaP cell homogenates to be 15.2 (±2.1) nM. […]
Dissociations constants (Kd and Kd,int), as well as maximal binding capacities (Bmax and Bmax,int), were derived from specific binding data by nonlinear regression according to the model of “One site-specific binding” as implemented in GraphPad Prism 10. Protein content was determined using the bicinchoninic acid protein assay kit (Pierce, Thermo Scientific) to calculate the binding capacities in pmol/mg and for the time-depending internalization the internalized percent of administrated dose per μg protein (% AD/μg protein).

T1 sequence (Q04609 whole entry): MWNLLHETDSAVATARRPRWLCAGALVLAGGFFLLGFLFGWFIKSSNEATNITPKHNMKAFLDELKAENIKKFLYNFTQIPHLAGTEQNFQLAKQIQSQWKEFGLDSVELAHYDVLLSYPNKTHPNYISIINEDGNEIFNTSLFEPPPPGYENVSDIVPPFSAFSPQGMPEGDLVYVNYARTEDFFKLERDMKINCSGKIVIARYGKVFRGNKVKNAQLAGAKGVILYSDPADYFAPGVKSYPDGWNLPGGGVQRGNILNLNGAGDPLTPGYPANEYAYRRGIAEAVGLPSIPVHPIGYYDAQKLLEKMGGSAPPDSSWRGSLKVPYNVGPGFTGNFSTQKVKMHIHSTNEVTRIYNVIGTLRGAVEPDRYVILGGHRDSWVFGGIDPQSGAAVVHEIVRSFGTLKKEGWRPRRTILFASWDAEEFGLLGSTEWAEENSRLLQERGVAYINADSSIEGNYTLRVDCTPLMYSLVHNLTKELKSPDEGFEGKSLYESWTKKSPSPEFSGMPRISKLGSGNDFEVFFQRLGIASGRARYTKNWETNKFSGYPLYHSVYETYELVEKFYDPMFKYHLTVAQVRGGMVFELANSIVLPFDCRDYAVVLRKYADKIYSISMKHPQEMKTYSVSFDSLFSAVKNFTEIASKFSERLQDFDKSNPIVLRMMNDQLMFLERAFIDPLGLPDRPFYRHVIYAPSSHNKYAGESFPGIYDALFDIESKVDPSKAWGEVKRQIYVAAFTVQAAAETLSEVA

Substance: [^177Lu]Lu-PSMA-617
- pKd: 7.82
